Patent publication EP4570800A1, “CRYSTAL FORM OF PYRIDINOPYRIMIDINONE COMPOUND, ACID SALT THEREOF, CRYSTAL FORM OF ACID SALT THEREOF, AND USE” (Wuhan Humanwell Innovative Drug Research and Development …, priority 2022, dated 2024)

Tests used:
[1] = Hygroscopicity by dynamic vapor sorption (DVS); format: physicochemical; details: 25°C
Protocol: The dynamic vapor sorption (DVS) curve was collected on DVS IntrInsic from SMS (surface measurement systems). The relative humidity at 25°C was corrected using the deliquescence points of LiCl, Mg(NO3)2, and KCl.
Starting from 0%RH or room humidity, the test collected the mass change percentage of the sample as the humidity changed (0%RH to 95%RH) under constant temperature conditions of 25°C.

[2] = Influence of vacuum drying conditions on crystal form A (XRPD, HPLC purity); format: physicochemical
Protocol: In order to evaluate the influence of the drying conditions on the crystal form A of the compound of formula I, the changes of the sample before and after vacuum drying of the crystal form A of the compound of formula I under the condition of 60°C/80°C for 4 hours were respectively investigated. The XRPD, ^1H NMR, and HPLC purity of the dried sample were tested. […]

[3] = Dynamic solubility in water, SGF, FaSSIF and FeSSIF; details: listed as Crystal form A of compound of formula I; for S: solubility: 37°C, solid feed concentration 10 mg/mL; for pH: pH value of the filtrate
Protocol: 100 mg of NaCl and 50 mg of Triton X-100 were weighed into a 50 mL volumetric flask, and purified water was added to complete dissolution. 816 µL of 1 M hydrochloric acid was added thereto, and the pH was adjusted to 1.8 with 1 M hydrochloric acid or 1 M NaOH solution. Purified water was added to make up to volume.
340 mg of anhydrous NaH2PO4, 42 mg of NaOH, and 620 mg of NaCl were weighed into a 100 mL volumetric flask. Purified water was added to complete dissolution. The pH was adjusted to 6.5 with 1 M hydrochloric acid or 1 M NaOH solution. Purified water was added to make up to volume. 110 mg of SIF powder was then weighed into a 50 mL volumetric flask, added with the above solution to complete dissolution and make up to volume.
About 90 mL of purified water was added to complete dissolution, and the pH was adjusted to 5.0 with 1 M hydrochloric acid or 1 M NaOH solution. Purified water was added to make up to volume. 560 mg of SIF powder was then weighed into a 50 mL volumetric flask, added with the above solution to complete dissolution and make up to volume.
Rotating mixing was carried out at 37°C at a solid feed concentration of 10 mg/mL (calculated as the compound of formula I). […] After sampling at each time point, the samples were centrifuged (10000 rpm) and filtered (0.45 µm PTFE filter head), and the HPLC concentration and pH value of the filtrate were measured.

[4] = Solid state stability (XRPD and HPLC); format: physicochemical; details: for HPLC results Purity (area%) / Crystal form: listed as Crystal form A of compound of formula I
Protocol: The purity test, dynamic solubility test, and stability test in the assay were measured with an Agilent 1260 high-performance liquid chromatograph, and the salt formation molar ratio of ions was tested by ion chromatography, and the analytical conditions are shown in Table 5 and Table 6.
Table 56 Summary of solid state stability evaluation

H358 cells = experiment: Inhibition of 3D cell proliferation (3D CellTiter-Glo); format: cell-based; details: Homo sapiens, NCI-H358, 168 h; 3D cell proliferation in H358 cells, 7 days culture, 3D CellTiter-Glo
Protocol: H358 cells were seeded in a T75 culture flask, and cultured in a RPMI 1640 medium containing 10% FBS for 2 days for subsequent experiments in which the cells would be cultured or seeded on a 384-well plate.
On day 1, the cells were seeded on the 384-well plate, with 40 µL of medium added per well and serially diluted compounds or DMSO added per well, and an additional well without seeded cells but with medium was set up as a blank control. After culture at 37°C, 5% CO2 for 7 days, the plate was added with 3D CellTiter-Glo reagent (Promega, Cat. No. G9683) on day 8, shaken at 320 rpm for 20 min, and left at room temperature for 2 h. Luminescence signals were read on a multifunctional microplate reader. Cell viability inhibition rate was calculated as: [formula]
(§1) IC50 values were calculated using Graphpad 5 software.

[5] = Human liver microsome stability test; format: in vitro ADME; details: human liver microsomes, incubation for 30 min, 37°C
Protocol: The human liver microsome stability test was performed by incubating the compound and human liver microsomes in vitro. First, the compound to be tested was prepared into a 10 mM stock solution in DMSO solvent, and then the compound was diluted to 0.5 mM with acetonitrile. Human liver microsomes (Corning) were diluted with PBS into a microsome/buffer solution, and the solution was used to dilute 0.5 mM compound into a working solution, in which the concentration of the compound was 1.5 µM, and the concentration of human liver microsomes was 0.75 mg/mL. A deep-well plate was taken, 30 µL of the working solution was added per well, and then 15 µL of pre-heated 6 mM NADPH solution was added thereto to initiate a reaction, and the reaction was incubated at 37°C. At 0, 5, 15, 30, and 45 min of the incubation, 135 µL of acetonitrile was added to the corresponding wells to terminate the reaction. After the reaction was terminated with acetonitrile at the last time point of 45 min, the deep-well plate was vortexed for 10 min (600 rpm/min), and then centrifuged for 15 min. After centrifugation, the supernatant was collected, and added with purified water in a ratio of 1:1 to perform LC-MS/MS detection. A ratio of a peak area of compound to a peak area of internal standard at each time point was obtained, and the peak area ratios of the compound at 5, 15, 30, and 45 min were compared with the peak area ratio at 0 min to calculate the remaining percentage of the compound at each time point. T1/2 was calculated by using GraphPad 5 software.

[6] = system: ERK phosphorylation level in DLD-1 cells; experiment: Inhibition of ERK phosphorylation level in DLD-1 cells (intracellular western blot); format: cell-based; details: Homo sapiens
Protocol: Intracellular western blot quantitative analysis was used to detect the inhibitory level of compounds on ERK phosphorylation in DLD-1 cells.
DLD-1 cells (ATCC, CCL-221) were seeded in a T75 culture flask at 2.5 × 10^6 cells/flask, and cultured in a RPMI 1640 medium containing 10% FBS for 2 days. On day 3, the cells were seeded on a 384-well plate, and cultured overnight at 37°C, 5% CO2. After overnight culture, the plate was added with serially diluted compounds (the final content of DMSO was 0.5%), the negative group was added with DMSO, and incubated in a 37°C, 5% CO2 incubator.
The cells were fixed, washed once with PBS, treated to disrupt membranes, and blocked at room temperature for 1 h. The blocking solution was removed. The plate was added with primary antibody (CST, Cat. No. #4370S), and incubated overnight at 4°C. The plate was washed 3 times with PBST (PBS solution added with 0.05% Tween-20), and soaked for 2 min each time. The plate was added with secondary antibody (LI-COR, Cat. No. 926-32211), and incubated at room temperature in the dark. The plate was washed 3 times with PBST, and soaked for 2 min each time. The plate was centrifuged at 1000 rpm for 1 min, scanned on a two-color infrared laser imaging system (Odyssey® CLX) to read the signal. Relative signal = 800-channel signal values/700-channel signal values. […]
as §1

[7] = system: NCI-H1975 non-small cell lung cancer; experiment: In vivo efficacy test of NCI-H1975 non-small cell lung cancer (combination with osimertinib); parameters: species or system mice; details: 1 mg/kg, QD
Protocol: NCI-H1975 tumor cells were cultured in an incubator at 37°C and 5% CO2 using medium containing inactivated RPMI 1640 + 10% FBS. After reaching a confluency rate of 80 to 90%, the cells were passaged by subculturing. After one week of adaptive feeding in mice, NCI-H1975 cells in logarithmic phase were inoculated subcutaneously into the right flank of mice at a concentration of 5 × 10^6/100 µL. Tumor growth was regularly monitored until the tumors reached an average volume of 100 to 150 mm^3. […] Tumor size and animal weight were measured and recorded before and during the administration process. The differences in tumor size between the model group and administration group were compared to determine the efficacy.

Question: With `Cc1nc(N[C@H](C)c2cccc(S(F)(F)(F)(F)F)c2)c2cn(C3(CF)CC3)c(=O)cc2n1` as the compound, how does the “DVS behaviour when higher than 10% RH” value ([1]; higher than 10% RH) read?
Answer: absorb more moisture and gain more weight with the increase of humidity

Question: What about the “DVS behaviour when lower than 10% RH” value ([1]; lower than 10% RH) of the same compound?
Answer: rapidly dehydrate

Question: What about the “Area (%) of main peak (relative retention time 1.00) After vacuum drying at 60°C” value ([2]; vacuum drying at 60°C for 4 hours, onset 97.07) of the same compound?
Answer: 97.11%

Question: And the “change in HPLC purity before and after drying” value ([2]; vacuum drying at 60°C/80°C for 4 hours)?
Answer: no significant change in purity

Question: What about the “crystal form after vacuum drying (XRPD)” value ([2]; vacuum drying at 60°C/80°C for 4 hours, then 19°C/27% RH for 10-15 min) of the same compound?
Answer: still the crystal form A of the compound of formula I

Question: And the “Area (%) of main peak (relative retention time 1.00) After vacuum drying at 80°C” value ([2]; vacuum drying at 80°C for 4 hours, onset 97.07)?
Answer: 97.14%

Question: What about the “S: solubility” value ([3]; FaSSIF, 1 hour, 60 min) of the same compound?
Answer: 210 µg/mL

Question: What about the “S: solubility” value ([3]; FaSSIF, 4 hours, 240 min) of the same compound?
Answer: 80 µg/mL

Question: And the “S: solubility” value ([3]; FaSSIF, 24 hours, 1440 min)?
Answer: 50 µg/mL

Question: And the “S: solubility” value ([3]; FeSSIF, 1 hour, 60 min)?
Answer: 2720 µg/mL

Question: What about the “S: solubility” value ([3]; FeSSIF, 4 hours, 240 min) of the same compound?
Answer: 2880 µg/mL

Question: And the “S: solubility” value ([3]; FeSSIF, 24 hours, 1440 min)?
Answer: 2740 µg/mL

Question: And the “S: solubility” value ([3]; H2O, 1 hour, 60 min)?
Answer: 140 µg/mL

Question: What about the “S: solubility” value ([3]; H2O, 4 hours, 240 min) of the same compound?
Answer: 110 µg/mL

Question: What about the “S: solubility” value ([3]; H2O, 24 hours, 1440 min) of the same compound?
Answer: 110 µg/mL

Question: What about the “S: solubility” value ([3]; SGF, 1 hour, 60 min) of the same compound?
Answer: 6840 µg/mL

Question: What about the “S: solubility” value ([3]; SGF, 4 hours, 240 min) of the same compound?
Answer: 7670 µg/mL

Question: What about the “S: solubility” value ([3]; SGF, 24 hours, 1440 min) of the same compound?
Answer: 7760 µg/mL

Question: And the pH ([3]; FaSSIF, 1 hour)?
Answer: 6.3

Question: And the pH ([3]; FaSSIF, 4 hours)?
Answer: 6.3

Question: What about the pH ([3]; FaSSIF, 24 hours) of the same compound?
Answer: 6.4

Question: What about the pH ([3]; FeSSIF, 1 hour) of the same compound?
Answer: 5.1

Question: And the pH ([3]; FeSSIF, 4 hours)?
Answer: 5.1

Question: What about the pH ([3]; FeSSIF, 24 hours) of the same compound?
Answer: 5.1

Question: And the pH ([3]; H2O, 1 hour)?
Answer: 5.4

Question: What about the pH ([3]; H2O, 4 hours) of the same compound?
Answer: 6.0

Question: And the pH ([3]; H2O, 24 hours)?
Answer: 5.8

Question: What about the pH ([3]; SGF, 1 hour) of the same compound?
Answer: 3.2

Question: What about the pH ([3]; SGF, 4 hours) of the same compound?
Answer: 3.3

Question: And the pH ([3]; SGF, 24 hours)?
Answer: 3.2

Question: And the “HPLC results Purity (area%)” value ([4]; 25°C/60%RH/open, 1 week)?
Answer: 97.13 area%

Question: What about the “HPLC results Purity (area%)” value ([4]; 40°C/75%RH/open, 1 week) of the same compound?
Answer: 97.14 area%

Question: And the “HPLC results Purity (area%)” value ([4]; Onset)?
Answer: 97.06 area%

Question: And the Crystal form ([4]; XRPD after 25°C/60%RH/open, 1 week)?
Answer: Crystal form A of compound of formula I

Question: And the Crystal form ([4]; XRPD after 40°C/75%RH/open, 1 week)?
Answer: Crystal form A of compound of formula I

Question: And the solid state stability ([4]; open, one week at 25°C/60% RH and 40°C/75% RH)?
Answer: good stability

Question: Which IC50 (H358 cells) does the source give for `Cc1nc(N[C@H](C)c2cccc(C(F)(F)F)c2C)c2cn(C3(CF)CC3)c(=O)cc2n1` [Control compound 1, reference compound] here?
Answer: 13 nM

Question: And the “Remaining percentage (%) of compound after incubation for 30 min” value [5]?
Answer: 70.2%

Question: What about the IC50 [6] of the same compound?
Answer: 72 nM

Question: For `C=CC(=O)Nc1cc(Nc2nccc(-c3cn(C)c4ccccc34)n2)c(OC)cc1N(C)CCN(C)C` [Osimertinib], which “Average tumor weight at the end of the treatment” value [7] is on record?
Answer: 3.2 g
